Measured values taken from patent US20230203004A1, “RSV INHIBITING 3-SUBSTITUTED QUINOLINE AND CINNOLINE DERIVATIVES” (Janssen Sciences Ireland Unlimited Company, priority 2020, published 2023).

Tests used:
rgRSV224 virus = assay: Antiviral activity: rgRSV224 (GFP) replication in HeLa cells; assay type: cell-based, respiratory syncytial virus (RSV); conditions: human respiratory syncytial virus, HeLa, 72 h, read-out: RSV HELA EC50, HeLa cells, rgRSV224 MOI = 1, GFP expression three days post-virus exposure; averaged data of several repeat experiments
Summary of the method: (§1)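 Over 3 days at 37 °C, compound titrations (4-fold steps, nine dilutions) were tested on HeLa cells infected with rgRSV224 (MOI = 1), inhibition of GFP signal giving EC50. In parallel plates, ATP content of HeLa cells after 3-day exposure defined CC50.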

[1] = Cytotoxicity in HeLa cells (ATP content, ATPlite kit); assay type: cell-based; conditions: human, TOX HELA CC50
Summary of the method: as §1

Row | Structure (SMILES) | EC50 (rgRSV224 virus) | CC50 at 3 days [1]
1 | COc1cc(C(=O)NC[C@](O)(c2nc(-c3ccc(F)cc3)c(F)c(C(C)(C)O)c2F)C2CC2)cc2cc(C(F)F)nnc12 [compound 287] | 0.0089 µM | 37 µM
2 | COc1cc(C(=O)NC[C@](O)(c2nc(-c3ccc(F)cc3)c(F)c(C(C)(C)O)c2F)C2CC2)cc2cc(C3CC3)nnc12 [compound 288, (-)Cyclopropyl-N-(2-Cyclopropyl-2-(3,5-Difluoro-6-(4-Fluorophenyl)-4-(2-Hydroxypropan-2-yl)Pyridin-2-yl)-2-Hydroxyethyl)-8-Methoxycinnoline-6-Carboxamide] | 0.0048 µM | 21 µM
3 | [2H]C([2H])([2H])Oc1cc(C(=O)NC[C@](O)(c2cc(C(C)(C)O)c(F)c(-c3ccc(F)cc3)n2)C2CC2)cc2cc(C3CC3)nnc12 [compound 289, (-)Cyclopropyl-N-(2-Cyclopropyl-2-(5-Fluoro-6-(4-Fluorophenyl)-4-(2-Hydroxypropan-2-yl)Pyridin-2-yl)-2-Hydroxyethyl)-8-(Methoxy-d3)Cinnoline-6-Carboxamide] | 0.0018 µM | 10 µM
4 | [2H]C([2H])([2H])Oc1cc(C(=O)NC[C@](O)(c2cc(C(C)(C)O)c(F)c(-c3ccc(F)cc3)n2)C2CC2)cc2cc(C)nnc12 [compound 290] | 0.00021 µM | 28 µM
5 | Cc1cc2cc(C(=O)NC[C@](O)(c3cc(C(C)(C)O)cc(-c4ccc(F)cc4)n3)C(F)(F)F)cc(OC3CC3)c2nn1 [compound 291, (-)Cyclopropoxy-3-Methyl-N-(3,3,3-Trifluoro-2-(6-(4-Fluorophenyl)-4-(2-Hydroxypropan-2-yl)Pyridin-2-yl)-2-Hydroxypropyl)Cinnoline-6-Carboxamide] | 0.015 µM | 57 µM
6 | COc1cc(C(=O)NC[C@](O)(c2cc(C(C)(C)O)c(F)c(-c3ccc(F)cc3)n2)C(F)F)cc2cc(C(F)F)nnc12 [compound 292, (-)-N-(3,3-difluoro-2-(5-fluoro-6-(4-fluorophenyl)-4-(2-hydroxypropan-2-yl)pyridin-2-yl)-2-hydroxypropyl)-3-(difluoromethyl)-8-methoxycinnoline-6-carboxamide] | 0.012 µM | 29 µM
7 | COc1cc(C(=O)NC[C@](O)(c2cc(C(C)(C)O)c(F)c(-c3ccc(F)cc3)n2)C(F)F)cc2cc(C3CC3)nnc12 [compound 293, (-)Cyclopropyl-N-(3,3-Difluoro-2-(5-Fluoro-6-(4-Fluorophenyl)-4-(2-Hydroxypropan-2-yl)Pyridin-2-yl)-2-Hydroxypropyl)-8-Methoxycinnoline-6-Carboxamide] | 0.011 µM | 15 µM
8 | COc1cc(C(=O)NC[C@](O)(c2cc(C(C)(C)O)c(F)c(-c3ccc(F)cc3)n2)C2(F)CC2)cc2cc(C)nnc12 [compound 296] | 0.002 µM | 56 µM
9 | COc1cc(C(=O)NC[C@@](O)(c2cc(C(C)(C)O)c(F)c(-c3ccc(F)cc3)n2)C2(F)CC2)cc2cc(C)nnc12 [compound 297] | 0.058 µM | 45 µM
10 | COc1cc(C(=O)NC[C@](O)(c2cc(C(C)(C)O)c(F)c(-c3ccc(F)cc3)n2)C2(C)CC2)cc2cc(C)nnc12 [compound 298] | 0.0026 µM | 52 µM
11 | COc1cc(C(=O)NC[C@@](O)(c2cc(C(C)(C)O)c(F)c(-c3ccc(F)cc3)n2)C2(C)CC2)cc2cc(C)nnc12 [compound 299] | 0.093 µM | 12 µM
12 | COc1cc(C(=O)NC[C@](O)(c2cc(C(C)(C)O)cc(-c3ccc(F)cc3)n2)C2CC2)cc2cc(C)nnc12 [compound 304] | 0.0021 µM | 23 µM
13 | COc1cc(C(=O)NC[C@@](O)(c2cc(C(C)(C)O)cc(-c3ccc(F)cc3)n2)C2CC2)cc2cc(C)nnc12 [compound 305] | 0.642 µM | 41 µM
14 | COc1cc(C(=O)NC[C@](O)(c2cc(C(C)(C)O)cc(-c3ccc(F)cc3)n2)C(C)(C)F)cc2cc(C)nnc12 [compound 306] | 0.001 µM | 50 µM
15 | COc1cc(C(=O)NC[C@@](O)(c2cc(C(C)(C)O)cc(-c3ccc(F)cc3)n2)C(C)(C)F)cc2cc(C)nnc12 [compound 307] | 0.04 µM | 43 µM
16 | Cc1cc2cc(C(=O)NC[C@](O)(c3cc(C(C)(C)O)c(F)c(-c4ccc(F)cc4)n3)C(F)F)cc(OC3CC3)c2nn1 [compound 308, (-)Cyclopropoxy-N-(3,3-Difluoro-2-(5-Fluoro-6-(4-Fluorophenyl)-4-(2-Hydroxypropan-2-yl)Pyridin-2-yl)-2-Hydroxypropyl)-3-Methylcinnoline-6-Carboxamide] | 0.0023 µM | 38 µM
17 | COc1cc(C(=O)NC[C@](O)(c2cc(C(C)(C)O)cc(-c3ccc(F)cc3)n2)C(C)(F)F)cc2cc(C)nnc12 [compound 309, (-)-N-(3,3-difluoro-2-(6-(4-fluorophenyl)-4-(2-hydroxypropan-2-yl)pyridin-2-yl)-2-hydroxybutyl)-8-methoxy-3-methylcinnoline-6-carboxamide] | 0.011 µM | 34 µM
18 | COc1cc(C(=O)NC[C@@](O)(c2cc(C(C)(C)O)cc(-c3ccc(F)cc3)n2)C(C)(F)F)cc2cc(C)nnc12 [compound 310, (+)-N-(3,3-difluoro-2-(6-(4-fluorophenyl)-4-(2-hydroxypropan-2-yl)pyridin-2-yl)-2-hydroxybutyl)-8-methoxy-3-methylcinnoline-6-carboxamide] | > 1.25 µM | 55 µM
19 | [2H]C([2H])([2H])c1cc2cc(C(=O)NC[C@](O)(c3cc(C(C)(C)O)c(F)c(-c4ccc(F)cc4)n3)C(F)(F)F)cc(OC)c2nn1 [compound 311, (-)Methoxy-3-(Methyl-d3)-N-(3,3,3-Trifluoro-2-(5-Fluoro-6-(4-Fluorophenyl)-4-(2-Hydroxypropan-2-yl)Pyridin-2-yl)-2-Hydroxypropyl)Cinnoline-6-Carboxamide] | 0.0013 µM | 42 µM
20 | Cc1cc2cc(C(=O)NC[C@](O)(c3cc(C(C)(C)O)c(F)c(-c4ccc(F)cc4)n3)C(F)(F)F)cc(OC(F)F)c2nn1 [compound 312, (-)(Difluoromethoxy)-3-Methyl-N-(3.3.3-Trifluoro-2-(5-Fluoro-6-(4-Fluorophenyl)-4-(2-Hydroxypropan-2-yl)Pyridin-2-yl)-2-Hydroxypropyl)Cinnoline-6-Carboxamide] | 0.0028 µM | 13 µM
21 | COc1cc(C(=O)NC[C@](O)(c2cc(C(C)(C)O)c(F)c(-c3ccc(F)cc3)n2)C(C)(F)F)cc2cc(C)nnc12 [compound 313, (-)-N-(3,3-difluoro-2-(5-fluoro-6-(4-fluorophenyl)-4-(2-hydroxypropan-2-yl)pyridin-2-yl)-2-hydroxybutyl)-8-methoxy-3-methylcinnoline-6-carboxamide] | 0.001 µM | 42 µM
22 | COc1cc(C(=O)NC[C@@](O)(c2cc(C(C)(C)O)c(F)c(-c3ccc(F)cc3)n2)C(C)(F)F)cc2cc(C)nnc12 [compound 314, (+)-N-(3,3-difluoro-2-(5-fluoro-6-(4-fluorophenyl)-4-(2-hydroxypropan-2-yl)pyridin-2-yl)-2-hydroxybutyl)-8-methoxy-3-methylcinnoline-6-carboxamide] | 0.168 µM | 35 µM
23 | [2H]C([2H])(NC(=O)c1cc(OC)c2nnc(C)cc2c1)[C@@](O)(c1cc(C(C)(C)O)c(F)c(-c2ccc(F)cc2)n1)C1CC1 [compound 315] | 0.047 µM | 27 µM
